Experimental data reported in patent US20130225534A1, “METHODS FOR TREATING AN INORGANIC SLURRY” (Rhodia Operations, priority 2003, published 2013).

System: bacterial contamination of calcium carbonate-based slurry
Settings: THPS solution added to calcium carbonate-based slurry; in 2 hours

In the case of “tetrakis(hydroxymethyl)phosphonium sulphate [THPS]”, the “reduction in bacterial count” value is reported as 10^4.
